Measured values taken from ChEMBL document CHEMBL3272279, “Synthesis of 5-chloro-3'-nitro-4'-substituted salicylanilides, a new series of anthelmintic and antimicrobial agents” (1977).
In brackets after ≈: the same amount, converted by molar mass. Activity calls are given as the source filed them. No cut-off for these calls is given here.

Legend:
Bacillus subtilis = experiment: Antimicrobial activity against Bacillus subtilis assessed as growth inhibition after 24 hrs by two-fold serial dilution technique; format: functional, organism-based
Salmonella typhi = experiment: Antimicrobial activity against Salmonella typhi assessed as growth inhibition after 24 hrs by two-fold serial dilution technique; format: functional, organism-based; conditions: Salmonella enterica subsp. enterica serovar Typhi
Escherichia coli [1] = experiment: Antimicrobial activity against Escherichia coli assessed as growth inhibition after 24 hrs by two-fold serial dilution technique; format: functional, organism-based
Candida albicans [2] = experiment: Antimicrobial activity against Candida albicans assessed as growth inhibition after 24 hrs by two-fold serial dilution technique; format: functional
Cryptococcus neoformans = experiment: Antimicrobial activity against Cryptococcus neoformans assessed as growth inhibition after 24 hrs by two-fold serial dilution technique; format: functional
[3] = system: Agrobacterium tumefaciens; experiment: Antimicrobial activity against Agrobacterium tumefaciens assessed as growth inhibition after 24 hrs by two-fold serial dilution technique; format: functional
Microsporum canis = experiment: Antimicrobial activity against Microsporum canis assessed as growth inhibition after 24 hrs by two-fold serial dilution technique; format: functional
Staphylococcus aureus = experiment: Antimicrobial activity against penicillin-resistant Staphylococcus aureus assessed as growth inhibition after 24 hrs by two-fold serial dilution technique; format: functional
Rodentolepis nana [4] = experiment: Cestodicidal activity against Hymenolepis nana infected in po dosed rat administered as single dose; format: functional
Aspergillus niger = experiment: Antimicrobial activity against Aspergillus niger assessed as growth inhibition after 24 hrs by two-fold serial dilution technique; format: functional
[5] = system: Trichophyton mentagrophytes; experiment: Antimicrobial activity against Trichophyton mentagrophytes assessed as growth inhibition after 24 hrs by two-fold serial dilution technique; format: functional
Candida albicans [6] = experiment: Antimicrobial activity against Candida albicans assessed as growth inhibition at 0.39 ug/ml after 24 hrs by two-fold serial dilution technique; format: functional, organism-based
Rodentolepis nana [7] = experiment: Cestodicidal activity against Hymenolepis nana infected in rat at 250 mg/kg, po administered as single dose; format: functional, organism-based; design: dose 250 mg/kg
Escherichia coli [8] = experiment: Antimicrobial activity against Escherichia coli assessed as growth inhibition at 0.78 ug/ml after 24 hrs by two-fold serial dilution technique; format: functional, organism-based

SMILES	growth inhibition (GI) (Bacillus subtilis)	growth inhibition (GI) (Salmonella typhi)	growth inhibition (GI) (Escherichia coli [1])	growth inhibition (GI) (Candida albicans [2])	MIC (Cryptococcus neoformans)	MIC [3]	MIC (Microsporum canis)	MIC (Staphylococcus aureus)	MED98 (Rodentolepis nana [4])	MIC (Aspergillus niger)	MIC [5]	MIC (Candida albicans [2])	growth inhibition (GI) (Candida albicans [6])	Activity (Rodentolepis nana [7])	growth inhibition (GI) (Escherichia coli [8])
O=C(Nc1ccc(N2CCCCCC2)c([N+](=O)[O-])c1)c1cc(Cl)ccc1O	inactive	inactive	inactive	inactive	> 100 µg/mL	> 100 µg/mL	25 µg/mL (≈ 64.1 µM)	0.0975 µg/mL (≈ 0.25 µM)	50 mg/kg	> 100 µg/mL	25 µg/mL (≈ 64.1 µM)	–	–	–	–
O=C(Nc1ccc(N2CCCCC2)c([N+](=O)[O-])c1)c1cc(Cl)ccc1O	inactive	inactive	inactive	–	1.56 µg/mL (≈ 4.15 µM)	12.5 µg/mL (≈ 33.3 µM)	> 100 µg/mL	0.195 µg/mL (≈ 0.519 µM)	250 mg/kg	12.5 µg/mL (≈ 33.3 µM)	> 100 µg/mL	25 µg/mL (≈ 66.5 µM)	–	–	–
C[C@@H]1[C@H](O)[C@@H](C)/C=C/C=C/C=C/C=C/C=C/C=C/C=C/[C@H](O[C@@H]2O[C@H](C)[C@@H](O)[C@H](N)[C@@H]2O)C[C@@H]2O[C@](O)(C[C@@H](O)C[C@@H](O)[C@H](O)CC[C@@H](O)C[C@@H](O)CC(=O)O[C@H]1C)C[C@H](O)[C@H]2C(=O)O [AMPHOTERICIN B]	–	–	–	–	0.78 µg/mL (≈ 0.844 µM)	–	1.56 µg/mL (≈ 1.69 µM)	–	–	12.5 µg/mL (≈ 13.5 µM)	1.56 µg/mL (≈ 1.69 µM)	–	Active	–	–
O=C(Nc1ccc(N2CCN(c3ccccc3)CC2)c([N+](=O)[O-])c1)c1cc(Cl)ccc1O	inactive	inactive	inactive	inactive	12.5 µg/mL (≈ 27.6 µM)	> 100 µg/mL	1.56 µg/mL (≈ 3.44 µM)	0.39 µg/mL (≈ 0.861 µM)	50 mg/kg	25 µg/mL (≈ 55.2 µM)	3.12 µg/mL (≈ 6.9 µM)	–	–	–	–
CN1CCN(c2ccc(NC(=O)c3cc(Cl)ccc3O)cc2[N+](=O)[O-])CC1	inactive	inactive	inactive	–	25 µg/mL (≈ 64 µM)	25 µg/mL (≈ 64 µM)	0.39 µg/mL (≈ 0.998 µM)	0.195 µg/mL (≈ 0.499 µM)	100 mg/kg	25 µg/mL (≈ 64 µM)	0.195 µg/mL (≈ 0.499 µM)	25 µg/mL (≈ 64 µM)	–	–	–
CC1CCN(c2ccc(NC(=O)c3cc(Cl)ccc3O)cc2[N+](=O)[O-])CC1	inactive	inactive	inactive	inactive	3.12 µg/mL (≈ 8.02 µM)	25 µg/mL (≈ 64.1 µM)	> 100 µg/mL	0.0975 µg/mL (≈ 0.25 µM)	250 mg/kg	> 100 µg/mL	> 100 µg/mL	–	–	–	–
O=C(Nc1ccc([N+](=O)[O-])cc1Cl)c1cc(Cl)ccc1O [NICLOSAMIDE]	–	–	–	–	–	–	–	–	50 mg/kg	–	–	–	–	–	–
Cc1cccc(Oc2ccc(NC(=O)c3cc(Cl)ccc3O)cc2[N+](=O)[O-])c1	inactive	inactive	inactive	inactive	> 100 µg/mL	> 100 µg/mL	0.78 µg/mL (≈ 1.96 µM)	0.195 µg/mL (≈ 0.489 µM)	–	> 100 µg/mL	1.56 µg/mL (≈ 3.91 µM)	–	–	inactive	–
CC1CCCN(c2ccc(NC(=O)c3cc(Cl)ccc3O)cc2[N+](=O)[O-])C1 (stereo not given)	inactive	inactive	inactive	inactive	25 µg/mL (≈ 64.1 µM)	> 100 µg/mL	3.12 µg/mL (≈ 8.02 µM)	0.39 µg/mL (≈ 1 µM)	250 mg/kg	> 100 µg/mL	6.25 µg/mL (≈ 16 µM)	–	–	–	–
Cc1ccc(Oc2ccc(NC(=O)c3cc(Cl)ccc3O)cc2[N+](=O)[O-])cc1	inactive	inactive	inactive	inactive	> 100 µg/mL	> 100 µg/mL	0.78 µg/mL (≈ 1.96 µM)	0.39 µg/mL (≈ 0.978 µM)	–	6.25 µg/mL (≈ 15.7 µM)	1.56 µg/mL (≈ 3.91 µM)	–	–	inactive	–
O=C(Nc1ccc(N2CCC(O)(c3ccccc3)CC2)c([N+](=O)[O-])c1)c1cc(Cl)ccc1O	inactive	inactive	inactive	inactive	3.12 µg/mL (≈ 6.68 µM)	25 µg/mL (≈ 53.4 µM)	6.25 µg/mL (≈ 13.4 µM)	0.39 µg/mL (≈ 0.833 µM)	250 mg/kg	> 100 µg/mL	6.25 µg/mL (≈ 13.4 µM)	–	–	–	–
O=C(Nc1ccc(N2CCC(c3ccccc3)CC2)c([N+](=O)[O-])c1)c1cc(Cl)ccc1O	inactive	inactive	inactive	inactive	3.12 µg/mL (≈ 6.92 µM)	25 µg/mL (≈ 55.3 µM)	6.25 µg/mL (≈ 13.8 µM)	0.39 µg/mL (≈ 0.863 µM)	250 mg/kg	> 100 µg/mL	6.25 µg/mL (≈ 13.8 µM)	–	–	–	–
CC1CCCCN1c1ccc(NC(=O)c2cc(Cl)ccc2O)cc1[N+](=O)[O-] (stereo not given)	inactive	inactive	inactive	inactive	> 100 µg/mL	> 100 µg/mL	6.25 µg/mL (≈ 16 µM)	0.0975 µg/mL (≈ 0.25 µM)	50 mg/kg	> 100 µg/mL	12.5 µg/mL (≈ 32.1 µM)	–	–	–	–
O=C(Nc1ccc(Br)cc1)c1cc(Br)cc(Br)c1O [TRIBROMSALAN]	inactive	inactive	inactive	–	6.25 µg/mL (≈ 13.9 µM)	12.5 µg/mL (≈ 27.8 µM)	0.78 µg/mL (≈ 1.73 µM)	0.0975 µg/mL (≈ 0.217 µM)	–	12.5 µg/mL (≈ 27.8 µM)	1.56 µg/mL (≈ 3.47 µM)	–	–	–	–
O=C(Nc1ccc(Oc2ccccc2)c([N+](=O)[O-])c1)c1cc(Cl)ccc1O	inactive	inactive	inactive	inactive	> 100 µg/mL	> 100 µg/mL	0.78 µg/mL (≈ 2.03 µM)	0.00609 µg/mL (≈ 0.0158 µM)	250 mg/kg	25 µg/mL (≈ 65 µM)	1.56 µg/mL (≈ 4.05 µM)	–	–	–	–
O=C(Nc1ccc(NC2CCCCC2)c([N+](=O)[O-])c1)c1cc(Cl)ccc1O	inactive	inactive	inactive	inactive	25 µg/mL (≈ 64.1 µM)	> 100 µg/mL	3.12 µg/mL (≈ 8.02 µM)	0.0975 µg/mL (≈ 0.25 µM)	30 mg/kg	25 µg/mL (≈ 64.1 µM)	3.12 µg/mL (≈ 8.02 µM)	–	–	–	–
CN(C)[C@@H]1C(O)=C(C(N)=O)C(=O)[C@@]2(O)C(O)=C3C(=O)c4c(O)cccc4[C@@](C)(O)[C@H]3C[C@@H]12 [TETRACYCLINE]	–	–	–	–	–	0.78 µg/mL (≈ 1.76 µM)	–	–	–	–	–	–	–	–	Active
CCCCN(CCCC)c1ccc(NC(=O)c2cc(Cl)ccc2O)cc1[N+](=O)[O-]	inactive	inactive	inactive	inactive	> 100 µg/mL	> 100 µg/mL	25 µg/mL (≈ 59.5 µM)	> 100 µg/mL	–	25 µg/mL (≈ 59.5 µM)	> 100 µg/mL	–	–	inactive	–
O=C(Nc1ccc(Oc2ccc(Cl)cc2)c([N+](=O)[O-])c1)c1cc(Cl)ccc1O	inactive	inactive	inactive	inactive	> 100 µg/mL	25 µg/mL (≈ 59.6 µM)	0.78 µg/mL (≈ 1.86 µM)	0.78 µg/mL (≈ 1.86 µM)	–	25 µg/mL (≈ 59.6 µM)	1.56 µg/mL (≈ 3.72 µM)	–	–	inactive	–
O=C(Nc1ccc(N2CCCC2)c([N+](=O)[O-])c1)c1cc(Cl)ccc1O	inactive	inactive	inactive	–	25 µg/mL (≈ 69.1 µM)	> 100 µg/mL	> 100 µg/mL	0.0975 µg/mL (≈ 0.269 µM)	–	25 µg/mL (≈ 69.1 µM)	> 100 µg/mL	25 µg/mL (≈ 69.1 µM)	–	inactive	–
CCOc1ccc(NC(=O)c2cc(Cl)ccc2O)cc1[N+](=O)[O-]	inactive	inactive	inactive	inactive	> 100 µg/mL	> 100 µg/mL	> 100 µg/mL	> 100 µg/mL	–	> 100 µg/mL	> 100 µg/mL	–	–	inactive	–
CCC1CCCCN1c1ccc(NC(=O)c2cc(Cl)ccc2O)cc1[N+](=O)[O-] (stereo not given)	inactive	inactive	inactive	inactive	25 µg/mL (≈ 61.9 µM)	> 100 µg/mL	6.25 µg/mL (≈ 15.5 µM)	0.39 µg/mL (≈ 0.966 µM)	100 mg/kg	> 100 µg/mL	6.25 µg/mL (≈ 15.5 µM)	–	–	–	–
